{"source": "patent US9597307B2", "about": "(priority 2012, dated 2017)", "key": {"[1]": {"settings": "cited from earlier work; for toxicity in studies / clinical testing: other indications (cancer and immune diseases), high doses"}, "T2D signature": {"test_system": "T2D signature", "settings": "Wistar rats, high fructose diet, two weeks of daily injections 10 mg/kg; p<0.0001 using Fisher's exact test", "source_text": "In a first attempt to use gene network analyses for drug repositioning, a panel of 50 genes that are perturbed in the liver in T2D (‘T2D signature’) were identified. The genes were selected using differential expression analysis, causality tests, and a Bayesian network algorithm to identify genes that regulate the expression of several other disease genes (‘key regulators’).\nA high fructose diet was used to induce insulin resistance on a group of Wistar rats."}, "Wistar rats": {"test_system": "Wistar rats", "settings": "high fructose diet, two weeks of daily injections 10 mg/kg, vs vehicle-treated control", "description": "For intraperitoneal pyruvate tolerance tests, a high fructose diet was used to induce insulin resistance on a group of Wistar rats. […] Intraperitoneal pyruvate tolerance tests are a procedure where pyruvate is converted to glucose in gluconeo-genesis. The test specifically reflects the insulin sensitivity of the liver."}, "H-4-II-E cells": {"test_system": "H-4-II-E cells", "settings": "without or with 10 or 100 nM insulin, FIG. 3", "procedure": "H-4-II-E cells were seeded 110,000/well in 24-well plates in their usual medium (EMEM from ATCC, no 30-2003 with addition of 10% FBS and penicillin/streptomycin) at day 0 and incubated with 0.25 mM palmitate-BSA (ratio 10:3) for 16 h ON day 2-3. […] The cells were washed 3 times with glucose output medium (GOM) without glucogenic substrates (118 mM NaCl, 4.7 mM KCl, 1.2 mM MgSO4, 1.2 mM KH2P04, 1.2 mM CaC12, 20 mM NaHCO3, 25 mM HEPES pH 7.4 and 0.025% BSA). Then 500 ul of GOM (118 mM NaCl, 4.7 mM KCl, 1.2 mM MgSO4, 1.2 mM KH2PO4, 1.2 mM CaCl2, 20 mM NaCO3, 25 mM HEPES pH 7.4, 0.025% BSA, 20 mM lactate, 2 mM pyruvate and 10 mM glutamine) and GOM with the addition of 10 or 100 nM insulin was added, and the cells were allowed to incubate for 5 h. After that, most of the incubation medium (375 ul) was removed and used for glucose measurements. The cells were washed once with cold PBS and lyzed with 200 ul RIPA buffer for determination of protein concentration. […] Glucose concentration in the buffer samples was determined using the AmplexRed Glucose/Glucose Oxidase Assay Kit (LifeTechnologies no. A22189) following the manufacturer's instructions. Protein concentration in the cell lysates was measured using Pierce BCA Protein Assay Kit (ThermoScientific no. 23225)."}}, "note": "Where two headings read alike, the source gives them in different places.", "data": [{"compound": "C[S+]([O-])CCCCN=C=S", "note": "(stereo not drawn) [sulforaphane]", "values": [{"measurement": "serious adverse events in ongoing studies", "setting": "[1]; ongoing studies for other indications", "value": "no serious adverse events have been reported"}, {"measurement": "toxicity in studies / clinical testing", "setting": "[1]", "value": "low toxicity even at high doses"}, {"measurement": "toxicity in studies / clinical testing", "setting": "[1]; listed as Sulforaphane", "value": "very low toxicity even at high doses"}, {"measurement": "reversal of genes in the T2D signature in liver", "setting": "T2D signature", "value": "a major fraction of the genes in the T2D signature was reversed"}, {"measurement": "intraperitoneal pyruvate tolerance (insulin sensitivity of the liver)", "setting": "Wistar rats; FIG. 2", "value": "significant positive effect"}, {"measurement": "intraperitoneal pyruvate tolerance (insulin sensitivity of the liver)", "setting": "Wistar rats; FIG. 2, listed as Sulforaphane", "value": "showed significant differences from a vehicle-treated control group"}, {"measurement": "result of the experiments repeated in animals on high-fat diet", "setting": "animals on high-fat diet", "value": "positive results"}, {"measurement": "hepatic glucose output, insulin-sensitive liver cells", "setting": "H-4-II-E cells; 10 uM sulforaphane for 28 h", "value": "decreases hepatic glucose output"}, {"measurement": "hepatic glucose output, insulin-resistant (induced by palmitate) liver cells", "setting": "H-4-II-E cells; 0.25 mM palmitate-BSA 16 h, then 10 uM sulforaphane for 28 h", "value": "decreases hepatic glucose output"}]}]}
